According to patent publication US20230042830A1, “COMPOSITIONS AND METHODS FOR GENERATION OF RETINAL GANGLION CELLS FROM INDUCIBLE PLURIPOTENT STEM CELLS FOR THE TREATMENT OF PROGRESSIVE OPTIC NEUROPATHIES, INCLUDING GLAUCOMA” (THE TRUSTEES OF THE UNIVERSITY OF PENNSYLVANIA, priority 2021, published 2023):

Experiments:
sonic hedgehog = experiment: RGC induction with SHH or SAG; format: cell-based, human; conditions: 100 nM, day 22-23
Method: Prior to RGC differentiation, medium was changed daily using RGC induction media containing SHH (sonic hedgehog) (250 ng/mL; R&D systems) or SAG (100 nM; Tocris), SHH was replaced with SAG after establishing equal competence, FGF8 (100 ng/mL, R&D systems) for two days. For RGC differentiation (see FIGS. 1D and 2B for kinetics), on day 24, cells were manually crossed into small clusters with Leibovitz's medium containing […] Glucose using the crosshatching technique as previously described (Espuny-Camacho et al., 2013), then replated at a density of 1.0×10^5 cells/well of 6-well plate coated with 1:100 diluted growth factor reduced Matrigel in RGCs induction media containing: Follistatin 300 (100 ng/ml), cyclopamine (0.5 uM, Tocris), DAPT (3 uM, Tocris), and 4.2 μM Rock inhibitor (Y27632). Media was changed 24 h post-plating with RGC induction media containing: Follistatin 300 (100 ng/ml) and DAPT (3 uM), daily for two days. From day 27, media was changed to RGC induction media containing: DAPT (3 uM, Tocris), 10 μM Rock inhibitor (Y27632), forskolin (5 uM; SelleckChem), cAMP (400 uM; Sigma-Aldrich), BDNF (40 ng/mL; R&D systems), NT4 (5 ng/mL; R&D systems), and CNTF (10 ng/mL; R&D systems). Media was changed every 2-3 days until day 36. […]

SIRT1 pathway = conditions: mouse models of optic neuritis and optic nerve trauma; cited from earlier work
iPSC-RGC cultures = experiment: Flow cytometry analysis of iPSC-RGC cultures (CD90/Thy-1, Brn-3b, RBPMS, SNCG); format: cell-based, human; conditions: flow cytometry after 35 days in vitro, three independent iPSC lines
Method: iPSCs were cultured on 0.1% gelatinized plates containing iMEFs in 37° C. 5% O2 and 5% CO2 conditions. Cells were maintained until approximately 75% confluence, then feeder cells were depleted and approximately 1.5×10^6 iPSCs were seeded in one well of 6-well tissue culture dish (Corning) coated with 1:100 diluted growth factor reduced Matrigel. iPSCs were maintained in iPSC: MEF-conditioned medium (80:20)+20 ng/mL of bFGF and 5 ng/ml of stable bFGF. The MEF-conditioned media was prepared by plating iMEFs onto 0.1% gelatin at a density of 20,000 cells/cm^2 in iPSC media. […] On day 16 of differentiation, seven conditions—1) L, 2) X, 3) 1.5 μM CHIR99021 (CHIR) (Wnt agonist; SelleckChem), 4) LX, 5) LSB, 6) LSB-CHIR and 7) LSBX were evaluated for RPC and RGC markers on day 23. Cultures from the following four conditions—1) LSBX, 2) LSB, 3) LX, and 4) 1.5 μM CHIR99021 (CHIR) (Wnt agonist; SelleckChem) were further evaluated at 35. An additional five conditions—1) L only, 2) X only, 3) LSB, 4) LSBX, and 5) LSB-CHIR were evaluated for RPC markers on day 23 to evaluate for transcript expression differences across different conditions in RPCs. […]

CNC1CCC(N(Cc2cccc(-c3ccncc3)c2)C(=O)c2sc3ccccc3c2Cl)CC1 (stereo not drawn) [SAG]
RGC induction compared with SHH (sonic hedgehog): no difference in RGC induction changes

Oc1ccc(C=Cc2cc(O)cc(O)c2)cc1 [resveratrol]
visual function and RGC survival (SIRT1 pathway): preserves visual function and RGC survival

Cc1c[nH]c(-c2cnc(NCCNc3ccc(C#N)cn3)nc2-c2ccc(Cl)cc2Cl)n1 [CHIR, CHIR99021]
Thy-1 (CD90) positive cells (iPSC-RGC cultures): 22.5%
